Assay results as given in patent US8044100B2, “Methods and compositions for treating amyloid-related diseases” (Bellus Health Inc., priority 2004, dated 2011).

Assays:
[1] = test system: Aβ peptides (Aβ40, Aβ42) in the plasma and brain of TgCRND8 mice; test: Long term treatment (8 or 16 weeks) in TgCRND8 mice: Aβ levels in plasma and brain; format: in vivo, mouse; settings: for Brain Abeta40 insoluble / Brain Abeta40 soluble / Brain Abeta42 insoluble / Brain Abeta42 soluble / Plasma Abeta40 / Plasma Abeta42: BX subcutaneous, BW and BZ oral
Protocol: The long-term therapeutic effects of compounds of the present invention on cerebral amyloid deposition and β-amyloid (Aβ) levels in the plasma and in the brains of transgenic mice, TgCRND8, expressing the human amyloid precursor protein (hAPP) was studied. These compounds were administered over an 8 or 16 week period at the end of which the levels of Aβ peptides in the plasma and brain of TgCRND8 animals were determined. The goal of this study was to evaluate the efficacy of the compounds at modulating the progression of the amyloidogenic process in the brain and in the plasma of a transgenic mouse model of Alzheimer's disease (AD)
The mice used in the study consisted of animals bearing one copy of the hAPP gene (+/−) from the 2nd and 3rd generation progenies (N2 and N3) derived from backcrosses from TgCRND8.FVB(N2)AJ(N3) with B6AF1/J hybrid animals. • N1=TgCRND8.FVB(N2)AJ(N3)×B6AF1/J • N2=TgCRND8.FVB(N2)AJ(N3).B6AF1/J(N1)×B6AF1/J • N3=TgCRND8.FVB(N2)AJ(N3).B6AF1/J(N2)×B6AF1/J
The following abbreviations are used to designate these animals in the present study: TgCRND8.B6AF1/J(N2); TgCRND8.B6AF1/J(N3). Male and female transgenic mice were given daily subcutaneous (compound BX) or oral (compounds BW and BZ) administrations of the appropriate compounds for 8 or 16 weeks.
Baseline animals consisted of 9±1 week old naive TgCRND8.B6AF1/J animals from the 2nd and 3rd generations. These mice were used to determine the extent of cerebral amyloid deposits and Aβ levels in the plasma and brain of naive transgenic animals at the initiation of treatment.
Starting at 9 weeks of age (+1 week) animals received daily administration of their respective treatment for a period of 8 or 16 weeks, at a dose of 30 or 100 mg/kg at 10 ml/kg. The route of administration was subcutaneous for water-soluble compounds (Compound BX) and oral for compounds solubilized in methylcellulose 1% (MC 1%) (Compounds BW and BZ). At the end of the treatment periods, plasma and perfused brains were collected for quantification of Aβ levels.
Animal health was monitored, samples were collected and Aβ levels were measured as described above in the short term treatment study. Compounds were scored based on their ability to modulate levels of Aβ peptides in the plasma and the cerebral soluble/insoluble levels in the brain. Levels of Aβ observed in the plasma and brain of treated animals were compared to that of vehicle-treated (water) or methylcellulose-treated control groups and ranked according to the strength of the pharmacological effect. Increases in the levels of Aβ peptides are indicated using “+” symbols, while decreases in the levels of Aβ peptides are indicated using “−” symbols. The strongest effects are recorded as “+++” or “−−−” while the weakest are shown as “+” or “−”.
Specifically, increases in the levels of Aβ (relative to vehicle treated control) of 5 to 14% are scored as “+”; increases of 15 to 29% are scored as “++”; and increases of 30% or higher are scored as “+++”. Decreases in the levels of Aβ of 5 to 14% are scored as “−”; decreases of 15 to 29% are scored as “−−”; and decreases of 30% or more are scored as “−−−”. Additionally, changes of 4% or less in either direction are scored as “0”.

[2] = test system: amyloid plaques in the brains of TgCRND8 mice; test: ThioS histology of brain sections of TgCRND8 mice: number of plaques and area occupied; format: in vivo, mouse; settings: for Change in Plaque Area / Change in Plaque Number: 16 wks, ThioS
Protocol: For the ThioS studies, the plaques in the brains of the mice were quantified as follows. Mice were transcardially perfused with saline solution. Brains were dissected out and separated in 2 hemispheres. The left hemisphere was immersed in freshly-prepared 4% paraformaldehyde for 3 hrs at 4° C., then transfered into 30% sucrose at 4° C. When cryoprotection was achieved (24-48 hours), brains were frozen in isopentane at −45° C. and subsequently stored at −80° C. until sectioning. Coronal 40 μm-thick sections were performed, and stained with thioflavin S (1% solution in water) for 8 min. After differentiation of the thioflavin S staining, sections were counterstained with hematoxylin for 5 minutes. Two sets of pictures were captured simultaneously. A first set of pictures was captured under brightfield illumination to obtain morphological details of the section; a second set of pictures was captured under a green, specific, fluorescent filter (fluorescein filter, Ex 495 nm, Em 525 nm). Image analysis to quantify the number of plaques and the area occupied by these plaques was performed using Image Pro Plus software (Media Cybernetics, MD, USA).
Increases in the areas and numbers of plaques are indicated using “+” symbols, while decreases in the areas and numbers of the plaques are indicated using “−” symbols.
Specifically, increases in the areas and numbers of plaques (relative to vehicle treated control) of 10 to 19.99% are scored as “+”. Decreases in the areas and numbers of plaques of 10 to 19.99% are scored as “−”. Additionally, changes of 9.99% or less in either direction are scored as “0”.

[3] = 30 mg/kg, ThioS staining of brain sections, preliminary

Compound	Brain Abeta40 insoluble ([1]; 30 mg/kg daily, 8 wks)	Brain Abeta40 soluble ([1]; 30 mg/kg daily, 8 wks)	Brain Abeta42 insoluble ([1]; 30 mg/kg daily, 8 wks)	Brain Abeta42 soluble ([1]; 30 mg/kg daily, 8 wks)	Plasma Abeta40 ([1]; 30 mg/kg daily, 8 wks)	Plasma Abeta42 ([1]; 30 mg/kg daily, 8 wks)	Brain Abeta40 insoluble ([1]; 30 mg/kg daily, 16 wks)	Brain Abeta40 soluble ([1]; 30 mg/kg daily, 16 wks)	Brain Abeta42 insoluble ([1]; 30 mg/kg daily, 16 wks)	Brain Abeta42 soluble ([1]; 30 mg/kg daily, 16 wks)	Plasma Abeta40 ([1]; 30 mg/kg daily, 16 wks)	Plasma Abeta42 ([1]; 30 mg/kg daily, 16 wks)	Brain Abeta40 insoluble ([1]; 100 mg/kg daily, 8 wks)	Brain Abeta40 soluble ([1]; 100 mg/kg daily, 8 wks)	Brain Abeta42 insoluble ([1]; 100 mg/kg daily, 8 wks)	Brain Abeta42 soluble ([1]; 100 mg/kg daily, 8 wks)	Plasma Abeta40 ([1]; 100 mg/kg daily, 8 wks)	Plasma Abeta42 ([1]; 100 mg/kg daily, 8 wks)	Brain Abeta40 insoluble ([1]; 100 mg/kg daily, 16 wks)	Brain Abeta40 soluble ([1]; 100 mg/kg daily, 16 wks)	also measured
O=S(=O)(O)CCCNC12CC3CC(CC(C3)C1)C2 [BW]	−− (decreases of 15 to 29%)	− (Decreases in the levels of Aβ of 5 to 14%)	0 (changes of 4% or less in either direction)	−− (decreases of 15 to 29%)	−−− (decreases of 30% or more)	−−− (decreases of 30% or more)	++ (increases of 15 to 29%)	+ (increases in the levels of Aβ (relative to vehicle treated control) of 5 to 14%)	+ (increases in the levels of Aβ (relative to vehicle treated control) of 5 to 14%)	− (Decreases in the levels of Aβ of 5 to 14%)	−− (decreases of 15 to 29%)	−− (decreases of 15 to 29%)	−−− (decreases of 30% or more)	−− (decreases of 15 to 29%)	−−− (decreases of 30% or more)	−− (decreases of 15 to 29%)	− (Decreases in the levels of Aβ of 5 to 14%)	− (Decreases in the levels of Aβ of 5 to 14%)	+ (increases in the levels of Aβ (relative to vehicle treated control) of 5 to 14%)	++ (increases of 15 to 29%)	Brain Abeta42 insoluble ([1]; 100 mg/kg daily, 16 wks): ++ (increases of 15 to 29%); Brain Abeta42 soluble ([1]; 100 mg/kg daily, 16 wks): + (increases in the levels of Aβ (relative to vehicle treated control) of 5 to 14%); Plasma Abeta40 ([1]; 100 mg/kg daily, 16 wks): − (Decreases in the levels of Aβ of 5 to 14%); Plasma Abeta42 ([1]; 100 mg/kg daily, 16 wks): − (Decreases in the levels of Aβ of 5 to 14%); brain and plasma levels of Aβ ([1]; at 8 weeks): dramatic decrease; plasma levels of Aβ ([1]; at 16 weeks): dramatic decrease; Change in Plaque Area ([2]; 30 mg/kg): 0 (changes of 9.99% or less in either direction); Change in Plaque Number ([2]; 30 mg/kg): 0 (changes of 9.99% or less in either direction); Change in Plaque Area ([2]; 100 mg/kg): 0 (changes of 9.99% or less in either direction); Change in Plaque Number ([2]; 100 mg/kg): − (Decreases in the areas and numbers of plaques of 10 to 19.99%)
CC(C)(C)NCCCS(=O)(=O)O [BX, 3-(t-butyl)amino-1-propanesulfonic acid]	−−− (decreases of 30% or more)	−−− (decreases of 30% or more)	−− (decreases of 15 to 29%)	−−− (decreases of 30% or more)	+ (increases in the levels of Aβ (relative to vehicle treated control) of 5 to 14%)	+ (increases in the levels of Aβ (relative to vehicle treated control) of 5 to 14%)	−−− (decreases of 30% or more)	−− (decreases of 15 to 29%)	− (Decreases in the levels of Aβ of 5 to 14%)	0 (changes of 4% or less in either direction)	− (Decreases in the levels of Aβ of 5 to 14%)	− (Decreases in the levels of Aβ of 5 to 14%)	++ (increases of 15 to 29%)	+ (increases in the levels of Aβ (relative to vehicle treated control) of 5 to 14%)	0 (changes of 4% or less in either direction)	+ (increases in the levels of Aβ (relative to vehicle treated control) of 5 to 14%)	++ (increases of 15 to 29%)	+++ (increases of 30% or higher)	−−− (decreases of 30% or more)	− (Decreases in the levels of Aβ of 5 to 14%)	Brain Abeta42 insoluble ([1]; 100 mg/kg daily, 16 wks): −− (decreases of 15 to 29%); Brain Abeta42 soluble ([1]; 100 mg/kg daily, 16 wks): 0 (changes of 4% or less in either direction); Plasma Abeta40 ([1]; 100 mg/kg daily, 16 wks): − (Decreases in the levels of Aβ of 5 to 14%); Plasma Abeta42 ([1]; 100 mg/kg daily, 16 wks): 0 (changes of 4% or less in either direction); amount of Aβ in the brain ([1]; at both 8 and 16 weeks): dramatic decrease; Change in Plaque Area ([2]; 30 mg/kg): − (Decreases in the areas and numbers of plaques of 10 to 19.99%); Change in Plaque Number ([2]; 30 mg/kg): − (Decreases in the areas and numbers of plaques of 10 to 19.99%); area occupied by the plaques [2, 3]: decreased; number of plaques [2, 3]: decreased; Change in Plaque Area ([2]; 100 mg/kg): + (increases in the areas and numbers of plaques (relative to vehicle treated control) of 10 to 19.99%); Change in Plaque Number ([2]; 100 mg/kg): 0 (changes of 9.99% or less in either direction)
